Measured values published in PubChem BioAssay (NCI).
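Growth conditions: 96-well plates. Treatment: test compound, 48 hours, 5 concentrations. Analysis: linear interpolation between bracketing concentrations; unreached endpoints set to highest concentration. GI50 is the concentration that inhibits growth by half. TGI denotes the concentration required for complete inhibition of growth.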

What was measured:
Assay in all cases: DTP human tumour cell line panel, 48 h
786-0 renal = test system: 786-0 renal
CAKI-1 renal = test system: CAKI-1 renal
COLO 205 colon = test system: COLO 205 colon
HOP-62 NSCLC = test system: HOP-62 NSCLC
MDA-MB-231 breast = test system: MDA-MB-231 breast
NCI-H522 lung = test system: NCI-H522 lung
OVCAR-4 ovarian = test system: OVCAR-4 ovarian
PC-3 prostate = test system: PC-3 prostate
SK-MEL-5 melanoma = test system: SK-MEL-5 melanoma
UACC-257 melanoma = test system: UACC-257 melanoma

O=C(Nc1ccc(Cl)cc1)c1cc2cc(F)ccc2cc1O
GI50 (786-0 renal): 2.9 µM
TGI (786-0 renal): > 100 µM
GI50 (CAKI-1 renal): 0.838 µM
TGI (CAKI-1 renal): 8.96 µM
GI50 (COLO 205 colon): 2.35 µM
TGI (COLO 205 colon): 6.4 µM
GI50 (HOP-62 NSCLC): 2.01 µM
TGI (HOP-62 NSCLC): 7.56 µM
GI50 (MDA-MB-231 breast): 1.55 µM
TGI (MDA-MB-231 breast): 5.29 µM
GI50 (NCI-H522 lung): 0.359 µM
TGI (NCI-H522 lung): 3.03 µM
GI50 (OVCAR-4 ovarian): 2.56 µM
TGI (OVCAR-4 ovarian): 8.99 µM
GI50 (PC-3 prostate): 1.94 µM
TGI (PC-3 prostate): > 100 µM
GI50 (SK-MEL-5 melanoma): 0.417 µM
TGI (SK-MEL-5 melanoma): 1.52 µM
GI50 (UACC-257 melanoma): 1.34 µM
TGI (UACC-257 melanoma): 5.2 µM

COc1ccc(C(=O)C(Br)C(Br)C(=O)O)cc1 (stereo unspecified)
TGI (786-0 renal): 97.6 µM
TGI (CAKI-1 renal): > 100 µM
TGI (COLO 205 colon): 46.8 µM
TGI (HOP-62 NSCLC): > 100 µM
TGI (MDA-MB-231 breast): > 100 µM
TGI (NCI-H522 lung): 34.9 µM
TGI (OVCAR-4 ovarian): > 100 µM
TGI (PC-3 prostate): > 100 µM
TGI (SK-MEL-5 melanoma): > 100 µM
TGI (UACC-257 melanoma): > 100 µM

CC1(C)CCC2(C(=O)O)CC[C@]3(C)C(=CCC4C5(C)CC[C@H](OC6OC(C(=O)O)C(O)C(OC7OC(CO)C(O)C(O)C7O)C6OC6OC(CO)C(O)C(O)C6O)C(C)(C)C5CCC43C)C2C1 (stereo partly specified)
GI50 (786-0 renal): > 100 µM
TGI (786-0 renal): > 100 µM
GI50 (CAKI-1 renal): > 100 µM
TGI (CAKI-1 renal): > 100 µM
GI50 (COLO 205 colon): > 100 µM
TGI (COLO 205 colon): > 100 µM
GI50 (HOP-62 NSCLC): > 100 µM
TGI (HOP-62 NSCLC): > 100 µM
GI50 (MDA-MB-231 breast): 45 µM
TGI (MDA-MB-231 breast): > 100 µM
GI50 (NCI-H522 lung): 38.4 µM
TGI (NCI-H522 lung): > 100 µM
GI50 (PC-3 prostate): 20.6 µM
TGI (PC-3 prostate): 38.5 µM
GI50 (SK-MEL-5 melanoma): > 100 µM
TGI (SK-MEL-5 melanoma): > 100 µM
GI50 (UACC-257 melanoma): > 100 µM
TGI (UACC-257 melanoma): > 100 µM

Cc1cccc2c1NC(=O)[C@@]21[C@H](C(=O)c2ccccc2)[C@]2(C(=O)Nc3ccccc32)[C@H]2CCCN21
GI50 (786-0 renal): 36 µM
TGI (786-0 renal): > 100 µM
GI50 (CAKI-1 renal): 22.4 µM
TGI (CAKI-1 renal): > 100 µM
GI50 (COLO 205 colon): 46.2 µM
TGI (COLO 205 colon): > 100 µM
GI50 (HOP-62 NSCLC): 26.7 µM
TGI (HOP-62 NSCLC): > 100 µM
GI50 (MDA-MB-231 breast): 21.3 µM
TGI (MDA-MB-231 breast): > 100 µM
GI50 (NCI-H522 lung): 29.2 µM
TGI (NCI-H522 lung): > 100 µM
GI50 (OVCAR-4 ovarian): 16.4 µM
TGI (OVCAR-4 ovarian): 40.7 µM
GI50 (PC-3 prostate): 36.4 µM
TGI (PC-3 prostate): > 100 µM
GI50 (SK-MEL-5 melanoma): 84.7 µM
TGI (SK-MEL-5 melanoma): > 100 µM
GI50 (UACC-257 melanoma): > 100 µM
TGI (UACC-257 melanoma): > 100 µM

NC(=O)c1cc(Cl)ccc1NC(=O)c1ccccc1-c1ccccc1
GI50 (786-0 renal): 0.479 µM
TGI (786-0 renal): 17.9 µM
GI50 (CAKI-1 renal): 0.735 µM
TGI (CAKI-1 renal): 64.3 µM
GI50 (COLO 205 colon): 0.923 µM
TGI (COLO 205 colon): 5.52 µM
GI50 (HOP-62 NSCLC): 0.902 µM
TGI (HOP-62 NSCLC): > 100 µM
GI50 (MDA-MB-231 breast): 1.89 µM
TGI (MDA-MB-231 breast): 43.5 µM
GI50 (NCI-H522 lung): 0.289 µM
TGI (NCI-H522 lung): 0.988 µM
GI50 (OVCAR-4 ovarian): 0.798 µM
TGI (OVCAR-4 ovarian): > 100 µM
GI50 (PC-3 prostate): 0.567 µM
TGI (PC-3 prostate): > 100 µM
GI50 (SK-MEL-5 melanoma): 0.425 µM
TGI (SK-MEL-5 melanoma): 15.9 µM
GI50 (UACC-257 melanoma): 12.8 µM
TGI (UACC-257 melanoma): 73.2 µM

O=C1CCC2=C3C4CCCCC4C(=O)C4CCCC(OC2C1)C34 (stereo unspecified)
GI50 (786-0 renal): 2.51 µM
TGI (786-0 renal): > 29.8 µM
GI50 (CAKI-1 renal): 1.34 µM
TGI (CAKI-1 renal): 5.47 µM
GI50 (COLO 205 colon): 17.7 µM
TGI (COLO 205 colon): > 72.7 µM
GI50 (HOP-62 NSCLC): 2.72 µM
TGI (HOP-62 NSCLC): 32.8 µM
GI50 (MDA-MB-231 breast): 1.47 µM
TGI (MDA-MB-231 breast): > 27.6 µM
GI50 (NCI-H522 lung): 0.434 µM
TGI (NCI-H522 lung): 1.27 µM
GI50 (OVCAR-4 ovarian): 1.79 µM
TGI (OVCAR-4 ovarian): > 25.1 µM
GI50 (PC-3 prostate): 2.57 µM
TGI (PC-3 prostate): > 29.6 µM
GI50 (SK-MEL-5 melanoma): 0.729 µM
TGI (SK-MEL-5 melanoma): 2.35 µM
GI50 (UACC-257 melanoma): 1.65 µM
TGI (UACC-257 melanoma): 4.93 µM

CC1(C)N=C(/C=N/O)C(C)(C)N1O
TGI (786-0 renal): > 100 µM
TGI (COLO 205 colon): > 100 µM
TGI (HOP-62 NSCLC): > 100 µM
TGI (MDA-MB-231 breast): > 100 µM
TGI (NCI-H522 lung): > 100 µM
TGI (OVCAR-4 ovarian): > 100 µM
TGI (PC-3 prostate): > 100 µM
TGI (SK-MEL-5 melanoma): > 100 µM

CCC(c1ccc(OC)cc1)C(CC)c1ccc(O)c(CN2CCCC2)c1 (stereo unspecified)
GI50 (786-0 renal): 2.06 µM
TGI (786-0 renal): 5.12 µM
GI50 (CAKI-1 renal): 6.1 µM
TGI (CAKI-1 renal): 20 µM
GI50 (COLO 205 colon): 1.81 µM
TGI (COLO 205 colon): 3.71 µM
GI50 (HOP-62 NSCLC): 3.46 µM
TGI (HOP-62 NSCLC): 13.4 µM
GI50 (MDA-MB-231 breast): 2.49 µM
TGI (MDA-MB-231 breast): 6.03 µM
GI50 (NCI-H522 lung): 1.66 µM
TGI (NCI-H522 lung): 3.79 µM
GI50 (OVCAR-4 ovarian): 2.54 µM
TGI (OVCAR-4 ovarian): 15.2 µM
GI50 (PC-3 prostate): 3.38 µM
TGI (PC-3 prostate): 14.3 µM
GI50 (SK-MEL-5 melanoma): 1.74 µM
TGI (SK-MEL-5 melanoma): 3.22 µM
GI50 (UACC-257 melanoma): 2.1 µM
TGI (UACC-257 melanoma): 4.7 µM

CNC(=O)c1cncc(/C=C/c2c(C)cccc2C)c1
GI50 (786-0 renal): > 25 µM
TGI (786-0 renal): > 25 µM
GI50 (CAKI-1 renal): 10.2 µM
TGI (CAKI-1 renal): > 25 µM
GI50 (COLO 205 colon): > 22.6 µM
TGI (COLO 205 colon): > 25 µM
GI50 (HOP-62 NSCLC): > 25 µM
TGI (HOP-62 NSCLC): > 25 µM
GI50 (MDA-MB-231 breast): 21.1 µM
TGI (MDA-MB-231 breast): > 25 µM
GI50 (NCI-H522 lung): > 17.8 µM
TGI (NCI-H522 lung): > 25 µM
GI50 (OVCAR-4 ovarian): > 25 µM
TGI (OVCAR-4 ovarian): > 25 µM
GI50 (PC-3 prostate): > 25 µM
TGI (PC-3 prostate): > 25 µM
GI50 (SK-MEL-5 melanoma): > 25 µM
TGI (SK-MEL-5 melanoma): > 25 µM
GI50 (UACC-257 melanoma): > 25 µM
TGI (UACC-257 melanoma): > 25 µM
